Consider five compounds from patent US20250120967A1, “TYROSINE KINASES INHIBITORS AND USES THEREOF” (GREAT NOVEL THERAPEUTICS BIOTECH & MEDICALS CORPORATION, priority 2023, published 2025).

Common to all, as to assay: Tyrosine kinase inhibition assay
Holding throughout (assay type): biochemical
Holding throughout (conditions): single concentration 1.0 μM, read-out: percent inhibition

One experiment has as its target ABL2 (Arg) (Homo sapiens, UniProt P42684). The gist of the method:
(§1)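 Kinase activity was measured by Z′-LYTE peptide assay with ATP at the apparent Km, in kinase buffer (50 mM HEPES pH 7.5, 0.01% BRIJ-35, 10 mM MgCl2, 1 mM EGTA) with 1% DMSO final. Compounds were tested at a single 1.0 μM concentration and reported as percent inhibition; >80% counted as a hit.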

The next experiment has as its target AKT3 (PKB gamma) (Homo sapiens, UniProt Q9Y243). The gist of the method:
as §1

The target of another experiment is T1, EPHA1 (Homo sapiens, UniProt P21709).
T1 sequence (P21709 26-976): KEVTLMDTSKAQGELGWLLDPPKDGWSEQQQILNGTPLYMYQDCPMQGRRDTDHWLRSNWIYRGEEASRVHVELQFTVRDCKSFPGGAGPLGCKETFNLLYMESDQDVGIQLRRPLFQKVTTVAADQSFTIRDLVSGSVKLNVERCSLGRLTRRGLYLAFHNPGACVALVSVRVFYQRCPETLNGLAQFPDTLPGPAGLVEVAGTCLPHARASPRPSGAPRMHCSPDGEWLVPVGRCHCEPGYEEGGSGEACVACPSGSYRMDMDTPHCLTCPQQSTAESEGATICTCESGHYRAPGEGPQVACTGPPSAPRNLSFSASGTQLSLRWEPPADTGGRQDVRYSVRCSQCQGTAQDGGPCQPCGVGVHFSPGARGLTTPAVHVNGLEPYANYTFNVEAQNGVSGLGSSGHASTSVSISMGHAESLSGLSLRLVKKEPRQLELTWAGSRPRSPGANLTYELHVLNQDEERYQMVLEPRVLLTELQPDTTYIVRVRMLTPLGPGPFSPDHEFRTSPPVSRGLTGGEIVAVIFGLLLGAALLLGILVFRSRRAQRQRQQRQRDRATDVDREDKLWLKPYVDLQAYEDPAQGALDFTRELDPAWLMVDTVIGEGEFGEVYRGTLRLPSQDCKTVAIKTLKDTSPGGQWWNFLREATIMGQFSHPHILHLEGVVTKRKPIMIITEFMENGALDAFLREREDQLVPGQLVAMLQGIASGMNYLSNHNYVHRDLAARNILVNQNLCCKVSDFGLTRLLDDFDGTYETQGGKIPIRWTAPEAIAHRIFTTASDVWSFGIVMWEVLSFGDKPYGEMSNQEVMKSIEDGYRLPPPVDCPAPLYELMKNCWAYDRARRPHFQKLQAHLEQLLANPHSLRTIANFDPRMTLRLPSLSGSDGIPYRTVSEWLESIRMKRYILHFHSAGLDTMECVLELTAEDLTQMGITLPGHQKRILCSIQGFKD
The gist of the method:
as §1

The target of another experiment is FES (FPS) (Homo sapiens, UniProt P07332). The gist of the method:
as §1

The next experiment deals with FGFR4 (Homo sapiens, UniProt P22455). The gist of the method:
as §1

Another experiment has as its target JAK2 (Homo sapiens, UniProt O60674). Put shortly: as §1
In another experiment the target is NTRK1 (TRKA) (Homo sapiens, UniProt P04629). Put shortly: as §1
In experiment [1] the target is PIK3CD/PIK3R1 (p110 delta/p85 alpha) (Homo sapiens, UniProt O00329). The gist of the method: as §1
A further experiment has as its target PTK2B (FAK2) (Homo sapiens, UniProt Q14289). Put shortly: as §1
The next experiment addresses SRMS (Srm) (Homo sapiens, UniProt Q9H3Y6). The gist of the method: as §1
For another experiment, the target named is YES1 (Homo sapiens, UniProt P07947). The gist of the method: as §1
Sequence of YES1 (P07947 whole entry): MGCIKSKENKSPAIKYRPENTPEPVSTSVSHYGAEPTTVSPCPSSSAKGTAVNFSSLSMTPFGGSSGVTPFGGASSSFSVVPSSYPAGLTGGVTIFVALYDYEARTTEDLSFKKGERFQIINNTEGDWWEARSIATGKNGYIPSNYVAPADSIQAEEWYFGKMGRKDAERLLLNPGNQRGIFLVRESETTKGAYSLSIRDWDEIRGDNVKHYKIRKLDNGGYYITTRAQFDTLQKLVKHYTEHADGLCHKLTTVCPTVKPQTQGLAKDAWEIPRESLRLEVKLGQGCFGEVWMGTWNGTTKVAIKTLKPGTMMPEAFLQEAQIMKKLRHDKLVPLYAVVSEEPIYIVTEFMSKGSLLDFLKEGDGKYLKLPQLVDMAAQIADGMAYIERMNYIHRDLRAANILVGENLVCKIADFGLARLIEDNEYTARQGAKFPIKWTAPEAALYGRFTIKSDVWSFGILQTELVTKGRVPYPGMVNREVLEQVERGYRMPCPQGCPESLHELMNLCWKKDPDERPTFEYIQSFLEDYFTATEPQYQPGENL
The next experiment addresses T2, ZAP70 (Homo sapiens, UniProt P43403).
T2 sequence (P43403 1-619): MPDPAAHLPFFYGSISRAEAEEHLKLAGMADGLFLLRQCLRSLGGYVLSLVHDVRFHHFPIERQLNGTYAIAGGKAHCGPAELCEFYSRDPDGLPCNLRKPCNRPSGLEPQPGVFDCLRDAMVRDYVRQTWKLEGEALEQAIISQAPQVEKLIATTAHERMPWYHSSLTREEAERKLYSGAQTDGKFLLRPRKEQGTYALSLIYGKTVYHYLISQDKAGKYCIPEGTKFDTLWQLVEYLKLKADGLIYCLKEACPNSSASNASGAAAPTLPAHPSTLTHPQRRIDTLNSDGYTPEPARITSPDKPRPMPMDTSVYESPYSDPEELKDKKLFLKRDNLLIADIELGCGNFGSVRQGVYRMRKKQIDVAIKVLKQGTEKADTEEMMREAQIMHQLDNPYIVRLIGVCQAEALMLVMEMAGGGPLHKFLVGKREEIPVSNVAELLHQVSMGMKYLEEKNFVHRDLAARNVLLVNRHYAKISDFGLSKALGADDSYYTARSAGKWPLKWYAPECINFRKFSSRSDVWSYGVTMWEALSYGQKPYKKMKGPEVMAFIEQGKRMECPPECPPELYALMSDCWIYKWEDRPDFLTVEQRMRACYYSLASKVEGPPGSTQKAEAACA
The gist of the method:
as §1

Sequence of JAK2 (O60674 whole entry): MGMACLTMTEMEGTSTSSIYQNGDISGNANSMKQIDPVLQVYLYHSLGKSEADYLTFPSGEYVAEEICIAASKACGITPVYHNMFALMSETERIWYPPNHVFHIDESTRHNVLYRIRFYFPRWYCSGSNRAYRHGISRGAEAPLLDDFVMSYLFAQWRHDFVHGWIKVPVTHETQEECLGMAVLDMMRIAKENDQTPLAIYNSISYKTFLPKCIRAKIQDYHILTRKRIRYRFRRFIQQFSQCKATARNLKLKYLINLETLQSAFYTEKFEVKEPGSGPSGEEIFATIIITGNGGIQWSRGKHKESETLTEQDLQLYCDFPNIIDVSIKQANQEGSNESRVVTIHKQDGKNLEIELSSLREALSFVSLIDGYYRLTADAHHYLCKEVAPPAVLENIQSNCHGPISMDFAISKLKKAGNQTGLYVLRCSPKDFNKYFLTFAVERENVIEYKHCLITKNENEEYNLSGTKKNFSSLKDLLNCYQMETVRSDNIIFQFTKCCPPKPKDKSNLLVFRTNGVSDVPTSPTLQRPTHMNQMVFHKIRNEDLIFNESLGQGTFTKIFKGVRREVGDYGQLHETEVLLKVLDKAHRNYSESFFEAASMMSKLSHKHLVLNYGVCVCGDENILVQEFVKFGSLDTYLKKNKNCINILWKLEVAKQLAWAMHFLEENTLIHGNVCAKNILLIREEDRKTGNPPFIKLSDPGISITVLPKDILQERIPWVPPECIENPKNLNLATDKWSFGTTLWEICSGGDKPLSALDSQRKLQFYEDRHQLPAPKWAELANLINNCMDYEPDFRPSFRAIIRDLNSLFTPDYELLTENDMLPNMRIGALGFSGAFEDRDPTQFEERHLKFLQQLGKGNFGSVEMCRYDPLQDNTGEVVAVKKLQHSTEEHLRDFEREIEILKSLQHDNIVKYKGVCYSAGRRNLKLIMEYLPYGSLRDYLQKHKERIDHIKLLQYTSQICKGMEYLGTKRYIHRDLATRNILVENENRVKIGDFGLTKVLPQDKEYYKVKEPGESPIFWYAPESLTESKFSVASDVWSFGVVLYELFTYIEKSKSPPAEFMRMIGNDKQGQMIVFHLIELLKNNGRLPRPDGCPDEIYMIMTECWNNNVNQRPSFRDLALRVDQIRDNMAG
Sequence of ABL2 (Arg) (P42684 whole entry): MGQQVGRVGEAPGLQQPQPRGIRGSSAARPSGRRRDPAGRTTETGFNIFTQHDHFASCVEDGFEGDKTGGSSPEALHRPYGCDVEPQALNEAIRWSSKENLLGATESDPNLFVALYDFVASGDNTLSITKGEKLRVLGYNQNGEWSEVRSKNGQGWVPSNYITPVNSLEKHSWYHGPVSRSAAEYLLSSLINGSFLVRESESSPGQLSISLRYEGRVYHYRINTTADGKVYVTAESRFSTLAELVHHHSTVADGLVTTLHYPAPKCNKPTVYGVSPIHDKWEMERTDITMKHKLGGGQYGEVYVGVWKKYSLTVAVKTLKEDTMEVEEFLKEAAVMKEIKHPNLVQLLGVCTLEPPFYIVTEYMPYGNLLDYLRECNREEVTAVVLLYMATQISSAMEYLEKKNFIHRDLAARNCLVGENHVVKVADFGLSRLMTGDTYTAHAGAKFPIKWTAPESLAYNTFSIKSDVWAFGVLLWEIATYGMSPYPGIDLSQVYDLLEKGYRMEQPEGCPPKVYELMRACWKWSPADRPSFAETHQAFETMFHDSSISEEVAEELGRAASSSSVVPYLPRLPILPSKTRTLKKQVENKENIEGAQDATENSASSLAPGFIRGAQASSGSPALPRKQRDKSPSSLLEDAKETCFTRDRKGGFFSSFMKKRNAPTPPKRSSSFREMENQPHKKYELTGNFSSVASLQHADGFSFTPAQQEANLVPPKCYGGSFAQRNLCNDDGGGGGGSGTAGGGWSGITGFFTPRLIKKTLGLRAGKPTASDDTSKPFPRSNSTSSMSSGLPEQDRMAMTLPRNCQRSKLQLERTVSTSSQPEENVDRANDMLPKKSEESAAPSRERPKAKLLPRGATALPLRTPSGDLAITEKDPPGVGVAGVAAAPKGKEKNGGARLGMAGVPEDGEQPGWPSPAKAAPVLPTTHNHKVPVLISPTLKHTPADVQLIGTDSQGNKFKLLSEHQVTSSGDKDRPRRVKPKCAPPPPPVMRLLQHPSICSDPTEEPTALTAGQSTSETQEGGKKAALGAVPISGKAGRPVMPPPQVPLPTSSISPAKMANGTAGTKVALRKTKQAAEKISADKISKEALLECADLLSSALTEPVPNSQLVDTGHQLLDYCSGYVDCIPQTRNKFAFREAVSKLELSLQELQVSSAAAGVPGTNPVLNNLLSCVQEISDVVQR
Sequence of FES (FPS) (P07332 whole entry): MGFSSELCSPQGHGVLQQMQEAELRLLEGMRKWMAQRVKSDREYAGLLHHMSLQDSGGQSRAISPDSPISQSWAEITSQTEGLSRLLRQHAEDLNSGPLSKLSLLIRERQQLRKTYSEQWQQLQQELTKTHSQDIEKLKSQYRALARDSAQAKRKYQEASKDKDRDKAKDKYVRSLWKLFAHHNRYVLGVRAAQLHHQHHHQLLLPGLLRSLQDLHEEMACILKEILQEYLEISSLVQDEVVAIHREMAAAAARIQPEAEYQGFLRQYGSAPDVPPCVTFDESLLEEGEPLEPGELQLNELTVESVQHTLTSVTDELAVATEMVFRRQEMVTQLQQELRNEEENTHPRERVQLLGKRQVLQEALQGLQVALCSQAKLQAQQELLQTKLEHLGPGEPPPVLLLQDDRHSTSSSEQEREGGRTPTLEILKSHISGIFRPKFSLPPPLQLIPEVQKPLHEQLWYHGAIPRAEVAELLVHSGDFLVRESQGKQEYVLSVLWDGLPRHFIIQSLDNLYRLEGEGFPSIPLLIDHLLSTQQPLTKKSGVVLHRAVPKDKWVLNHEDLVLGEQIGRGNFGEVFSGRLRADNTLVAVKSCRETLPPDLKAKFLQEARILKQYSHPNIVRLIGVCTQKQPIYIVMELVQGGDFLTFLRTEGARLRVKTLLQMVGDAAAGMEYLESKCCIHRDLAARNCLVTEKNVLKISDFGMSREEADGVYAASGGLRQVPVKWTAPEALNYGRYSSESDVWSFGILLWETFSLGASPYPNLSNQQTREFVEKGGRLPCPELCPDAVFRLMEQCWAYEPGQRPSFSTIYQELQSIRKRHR
Sequence of FGFR4 (P22455 22-802): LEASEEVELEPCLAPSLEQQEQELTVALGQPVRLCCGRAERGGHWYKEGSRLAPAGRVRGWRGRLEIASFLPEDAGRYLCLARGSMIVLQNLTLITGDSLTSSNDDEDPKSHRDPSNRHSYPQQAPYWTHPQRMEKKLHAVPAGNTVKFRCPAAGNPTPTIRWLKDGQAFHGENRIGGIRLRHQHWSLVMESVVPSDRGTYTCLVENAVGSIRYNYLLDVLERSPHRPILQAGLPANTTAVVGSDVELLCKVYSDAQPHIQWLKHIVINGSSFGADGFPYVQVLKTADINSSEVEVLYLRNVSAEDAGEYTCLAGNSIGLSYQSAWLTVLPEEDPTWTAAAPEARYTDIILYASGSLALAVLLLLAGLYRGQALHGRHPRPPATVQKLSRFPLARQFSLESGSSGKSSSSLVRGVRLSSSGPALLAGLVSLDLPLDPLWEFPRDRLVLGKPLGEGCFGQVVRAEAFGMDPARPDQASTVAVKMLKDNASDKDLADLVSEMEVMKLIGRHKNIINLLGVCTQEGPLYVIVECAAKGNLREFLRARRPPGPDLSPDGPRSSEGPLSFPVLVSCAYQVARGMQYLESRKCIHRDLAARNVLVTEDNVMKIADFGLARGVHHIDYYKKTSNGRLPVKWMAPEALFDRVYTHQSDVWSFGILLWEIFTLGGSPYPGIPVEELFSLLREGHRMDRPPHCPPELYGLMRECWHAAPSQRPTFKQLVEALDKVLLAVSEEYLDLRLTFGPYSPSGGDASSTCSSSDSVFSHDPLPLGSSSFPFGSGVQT
Sequence of SRMS (Srm) (Q9H3Y6 whole entry): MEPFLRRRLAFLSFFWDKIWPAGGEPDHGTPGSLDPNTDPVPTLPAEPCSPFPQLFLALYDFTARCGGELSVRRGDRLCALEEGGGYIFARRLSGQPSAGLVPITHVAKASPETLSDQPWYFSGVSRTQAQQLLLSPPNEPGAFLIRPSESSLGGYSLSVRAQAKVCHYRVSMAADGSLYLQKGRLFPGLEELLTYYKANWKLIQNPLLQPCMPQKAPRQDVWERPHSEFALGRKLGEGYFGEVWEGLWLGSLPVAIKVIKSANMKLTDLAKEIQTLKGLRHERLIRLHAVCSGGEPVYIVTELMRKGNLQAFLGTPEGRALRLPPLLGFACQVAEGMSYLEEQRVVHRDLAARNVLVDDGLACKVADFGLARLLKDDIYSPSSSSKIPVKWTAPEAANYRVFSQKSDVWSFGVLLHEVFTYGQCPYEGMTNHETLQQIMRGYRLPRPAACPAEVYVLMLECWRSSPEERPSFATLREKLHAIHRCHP

In general, inhibition refers to the drop in the measured response relative to a control, in per cent. Take `COc1cc2nccc(Oc3ccc(NC(=O)C4(C(=O)Nc5ccc(F)cc5)CC4)cc3)c2cc1OC` [Cabozantinib, reference compound]: the inhibition at 1 µM at ABL2 (Arg) was 35%; at AKT3 (PKB gamma), 8%; on EPHA1 it was 74%; at FES (FPS), 30%; on FGFR4, -2%; on JAK2, 24%. The inhibition at 1 µM on NTRK1 (TRKA) is 98%; in experiment [1] it was -1%; on PTK2B (FAK2), 71%; on SRMS (Srm), 96%; at YES1, 63%; on ZAP70, 13%.

Take `COc1cc2nccc(Oc3ccc(NC(=O)C4(C(=O)Nc5ccc(F)cc5)CC4)cc3F)c2cc1Oc1ccc(N)cc1F` [Cbo-23]: the inhibition at 1 µM was 54% on ABL2 (Arg); -1% at AKT3 (PKB gamma); 96% at EPHA1; 58% at FES (FPS); 13% on FGFR4; 58% on JAK2. Besides, the inhibition at 1 µM at NTRK1 (TRKA) turned out to be 97%; in experiment [1], 2%; at PTK2B (FAK2), 100%; on SRMS (Srm), 99%; on YES1 it was 94%; at ZAP70, 5%.

In the case of `COc1cc2nccc(Oc3ccc(NC(=O)C4(NC(=O)c5ccc(F)cc5)CC4)cc3F)c2cc1Oc1ccc(N)cc1F` [Cbo-10], the inhibition at 1 µM on ABL2 (Arg) was 17%; at AKT3 (PKB gamma), 7%; on EPHA1 it was 84%; at FES (FPS), 80%; on FGFR4, 1%; at JAK2 it was -1%. Moreover, the inhibition at 1 µM at NTRK1 (TRKA) amounted to 80%; in experiment [1], 12%; at PTK2B (FAK2), 56%; at SRMS (Srm), 74%; on YES1, 64%; at ZAP70, 6%.

Regarding `COc1cc2nccc(Oc3ccc(NC(=O)C4(NC(=O)c5ccc(F)cc5)CC4)cc3F)c2cc1OC` [Cbo-02, N-(1-((4-((6,7-diMethoxyquinolin-4-yl)oxy)-3-fluorophenyl)carbamoyl)cyclopropyl)-4-fluorobenzamide], the inhibition at 1 µM at ABL2 (Arg) is 12%; at AKT3 (PKB gamma), 5%; on EPHA1, 29%; on FES (FPS), 38%; on FGFR4, 0%; at JAK2 it was 6%. Further, the inhibition at 1 µM at NTRK1 (TRKA) is 58%; in experiment [1] it was -6%; at PTK2B (FAK2) it was 9%; on SRMS (Srm), 12%; on YES1, 34%; at ZAP70, 14%.

`COc1cc2nccc(Oc3ccc(NC(=O)C4(NC(=O)c5ccc(F)cc5)CC4)cc3F)c2cc1Oc1c(F)cc(N)cc1F` [Cbo-14]: the inhibition at 1 µM is 18% on ABL2 (Arg); 6% at AKT3 (PKB gamma); 80% on EPHA1; 78% on FES (FPS); -1% at FGFR4; 1% at JAK2. The inhibition at 1 µM at NTRK1 (TRKA) was 71%; in [1] it was 16%; on PTK2B (FAK2) it was 54%; on SRMS (Srm) it was 84%; at YES1 it was 63%; at ZAP70, 9%.
